Laboratory results reported in PubChem BioAssay AID330 (DTP/NCI, 2004).
“And” between values parts separate entries of the source, which are not always exact repeats. Equal entries are not always repeated. Toxic doses and inconclusive results are not listed.

Tested on: P388 leukemia ip, CD2F1 mice, survival T/C
Experiment: NCI In Vivo Anticancer Drug Screen. Data for tumor model P388 Leukemia (intraperitoneal) in CD2F1 (CDF1) mice
Conditions: endpoint: median survival time, higher = longer survival
In short: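 Mice carrying the transplanted tumor received test compound or vehicle. Survival was recorded in each group, and the value is the treated-group measurement divided by that of the vehicle-treated control group.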

[1] = dose: 50.0 mg/kg/injection, schedule: Q04DX003 (ip), vehicle: saline with Tween-80
[2] = dose: 6.25 mg/kg/injection, schedule: Q01DX009 (ip), vehicle: saline with Tween-80
[3] = dose: 12.5 mg/kg/injection, schedule: Q01DX009 (ip), vehicle: saline with Tween-80
[4] = dose: 50.0 mg/kg/injection, schedule: Q01DX005 (ip), vehicle: saline with Tween-80
[5] = dose: 100.0 mg/kg/injection, schedule: Q01DX005 (ip), vehicle: saline with Tween-80
[6] = dose: 200.0 mg/kg/injection, schedule: Q01DX005 (ip), vehicle: saline with Tween-80
[7] = dose: 60.0 mg/kg/injection, schedule: Q01DX005 (ip), vehicle: saline with Tween-80
[8] = dose: 120.0 mg/kg/injection, schedule: Q01DX005 (ip), vehicle: saline with Tween-80
[9] = dose: 240.0 mg/kg/injection, schedule: Q01DX005 (ip), vehicle: saline with Tween-80
[10] = dose: 12.5 mg/kg/injection, schedule: Q01DX009 (ip), vehicle: distilled water + Tween-80
[11] = dose: 25.0 mg/kg/injection, schedule: Q01DX009 (ip), vehicle: distilled water + Tween-80
[12] = dose: 50.0 mg/kg/injection, schedule: Q01DX009 (ip), vehicle: distilled water + Tween-80
[13] = dose: 100.0 mg/kg/injection, schedule: Q01DX009 (ip), vehicle: distilled water + Tween-80
[14] = dose: 200.0 mg/kg/injection, schedule: Q01DX009 (ip), vehicle: distilled water + Tween-80
[15] = dose: 12.5 mg/kg/injection, schedule: Q01DX005 (ip), vehicle: saline with Tween-80
[16] = dose: 25.0 mg/kg/injection, schedule: Q01DX005 (ip), vehicle: saline with Tween-80
[17] = dose: 100.0 mg/kg/injection, schedule: Q04DX003 (ip), vehicle: saline with Tween-80
[18] = dose: 200.0 mg/kg/injection, schedule: Q04DX003 (ip), vehicle: saline with Tween-80

Structure (SMILES): COc1cc(C=Nc2ccc(Cl)cc2)ccc1N(CCCl)CCCl
- T/C (dose: 0.44 mg/kg/injection, schedule: Q01DX009 (ip), vehicle: saline with Tween-80): 100 % of control
- T/C (dose: 0.66 mg/kg/injection, schedule: Q01DX009 (ip), vehicle: saline with Tween-80): 100 % of control
- T/C (dose: 1.0 mg/kg/injection, schedule: Q01DX009 (ip), vehicle: saline with Tween-80): 109 % of control
- T/C (dose: 2.5 mg/kg/injection, schedule: Q01DX009 (ip), vehicle: saline with Tween-80): 95 % of control
- T/C (dose: 5.0 mg/kg/injection, schedule: Q01DX009 (ip), vehicle: saline with Tween-80): 157 % of control
- T/C [1]: 204 % of control

Structure (SMILES): COCCOCn1cccc1Cc1ccc(C)cc1
- T/C (dose: 100.0 mg/kg/injection, schedule: Q01DX001 (ip), vehicle: distilled water + alcohol): 100 % of control
- T/C (dose: 200.0 mg/kg/injection, schedule: Q01DX001 (ip), vehicle: distilled water + alcohol): 96 % of control
- T/C (dose: 400.0 mg/kg/injection, schedule: Q01DX001 (ip), vehicle: distilled water + alcohol): 99 % of control

Structure (SMILES): O=S(=O)(c1ccccc1)N(Cl)Cl
- T/C [2]: 102 % of control and 104 % of control and 123 % of control
- T/C [3]: 104 % of control and 120 % of control and 93 % of control
- T/C (dose: 50.0 mg/kg/injection, schedule: Q01DX009 (ip), vehicle: saline with Tween-80): 111 % of control

Structure (SMILES): COC1(NS(=O)(=O)c2ccc(C)cc2)CC1
- T/C (dose: 60.0 mg/kg/injection, schedule: Q01DX005 (ip), vehicle: Klucel (hydroxypropylcellulose) (HPC)): 103 % of control
- T/C (dose: 120.0 mg/kg/injection, schedule: Q01DX005 (ip), vehicle: Klucel (hydroxypropylcellulose) (HPC)): 91 % of control

Structure (SMILES): COc1ccc(C(CCO)c2cc3c(cc2OC)OCO3)cc1 (configuration not stated)
- T/C (dose: 50.0 mg/kg/injection, schedule: Q01DX005 (ip), vehicle: distilled water + Tween-80): 101 % of control
- T/C (dose: 100.0 mg/kg/injection, schedule: Q01DX005 (ip), vehicle: distilled water + Tween-80): 101 % of control
- T/C (dose: 200.0 mg/kg/injection, schedule: Q01DX005 (ip), vehicle: distilled water + Tween-80): 98 % of control

Structure (SMILES): COC1C(C)(C)C1(Br)Br (configuration not stated)
- T/C [4]: 100 % of control
- T/C [5]: 99 % of control
- T/C [6]: 98 % of control

Structure (SMILES): O=c1[nH]c2ccccc2nc1C1(F)CCCC1
- T/C [7]: 98 % of control
- T/C [8]: 92 % of control
- T/C [9]: 89 % of control

Structure (SMILES): CCN(CC)CCNC(=O)C(=O)NCCN(CC)CC
- T/C (dose: 50.0 mg/kg/injection, schedule: Q01DX005 (ip), vehicle: saline): 97 % of control
- T/C (dose: 100.0 mg/kg/injection, schedule: Q01DX005 (ip), vehicle: saline): 99 % of control

Structure (SMILES): Cc1cc2nc3c(=O)[nH]c(=O)nc-3n(CCOC(=O)CCC(=O)O)c2cc1C
- T/C (dose: 100.0 mg/kg/injection, schedule: Q04DX003 (ip), vehicle: saline sonified): 104 % of control
- T/C (dose: 200.0 mg/kg/injection, schedule: Q04DX003 (ip), vehicle: saline sonified): 114 % of control

Structure (SMILES): CC(=O)NCCc1nc(-c2nc(C(=O)NCCC(C)C)cs2)cs1
- T/C [10]: 92 % of control
- T/C [11]: 94 % of control
- T/C [12]: 98 % of control
- T/C [13]: 102 % of control
- T/C [14]: 115 % of control

Structure (SMILES): CCOCC1OCCCO1
- T/C (dose: 60.0 mg/kg/injection, schedule: Q01DX005 (ip), vehicle: saline): 104 % of control
- T/C (dose: 120.0 mg/kg/injection, schedule: Q01DX005 (ip), vehicle: saline): 103 % of control
- T/C (dose: 240.0 mg/kg/injection, schedule: Q01DX005 (ip), vehicle: saline): 103 % of control

Structure (SMILES): COc1cc(CC2COC(=O)C2(O)Cc2ccc(O)c(OC)c2)ccc1O (configuration not stated)
- T/C [4]: 98 % of control
- T/C [5]: 95 % of control
- T/C [6]: 100 % of control

Structure (SMILES): O=C1OC2CCCC2C12C(=O)O[C@@H]1CCC[C@@H]12 (mixture of isomers)
- T/C [7]: 97 % of control
- T/C [8]: 99 % of control
- T/C [9]: 99 % of control

Structure (SMILES): N=C(N)SCc1ccc2nsnc2c1
- T/C [15]: 98 % of control
- T/C [16]: 100 % of control
- T/C [4]: 98 % of control and 102 % of control

Structure (SMILES): CCCCCCCN(CCCCCCC)CC(O)c1cc2ccc(Cl)cc2nc1-c1ccc(Cl)cc1 (configuration not stated)
- T/C (dose: 100.0 mg/kg/injection, schedule: Q01DX001 (ip), vehicle: saline sonified): 90 % of control
- T/C (dose: 200.0 mg/kg/injection, schedule: Q01DX001 (ip), vehicle: saline sonified): 90 % of control
- T/C (dose: 400.0 mg/kg/injection, schedule: Q01DX001 (ip), vehicle: saline sonified): 104 % of control

Structure (SMILES): O=C1N(c2ccccc2)C(=Nc2ccccc2)C(=Nc2ccccc2)N1c1ccccc1
- T/C (dose: 50.0 mg/kg/injection, schedule: Q01DX005 (ip), vehicle: Klucel + Tween-80): 96 % of control
- T/C (dose: 100.0 mg/kg/injection, schedule: Q01DX005 (ip), vehicle: Klucel + Tween-80): 91 % of control
- T/C (dose: 200.0 mg/kg/injection, schedule: Q01DX005 (ip), vehicle: Klucel + Tween-80): 92 % of control

Structure (SMILES): COc1cc(C(C)=O)c(C2=NC(C)(C)CO2)cc1C
- T/C [4]: 101 % of control
- T/C [5]: 98 % of control
- T/C [6]: 97 % of control

Structure (SMILES): O=C(NCc1ccccc1)OCc1c(COC(=O)NCc2ccccc2)c(-c2ccc(Cl)c(Cl)c2)n2c1CCC2
- T/C (dose: 3.13 mg/kg/injection, schedule: Q01DX009 (ip), vehicle: distilled water + Tween-80): 105 % of control
- T/C (dose: 6.25 mg/kg/injection, schedule: Q01DX009 (ip), vehicle: distilled water + Tween-80): 151 % of control
- T/C [10]: 158 % of control and 161 % of control
- T/C [11]: 160 % of control and 174 % of control
- T/C [12]: 164 % of control and 182 % of control
- T/C [13]: 194 % of control and 196 % of control

Structure (SMILES): O=CNc1cccc(NC=O)c1
- T/C [11]: 111 % of control
- T/C [12]: 100 % of control
- T/C [13]: 100 % of control
- T/C [14]: 100 % of control

Structure (SMILES): CC(C)C(NC(=O)C(C)N(C)C)C(=O)N1CCC2Oc3ccc(cc3)/C=C\NC(=O)C(Cc3ccccc3)NC(=O)C21 (configuration not stated)
- T/C [17]: 97 % of control
- T/C [18]: 95 % of control
- T/C (dose: 400.0 mg/kg/injection, schedule: Q04DX003 (ip), vehicle: saline with Tween-80): 96 % of control

Structure (SMILES): CC(=O)OCC(=O)[C@@]1(O)CC[C@H]2[C@@H]3C[C@H](C)C4=CC(=O)C=C[C@]4(C)[C@@]3(F)[C@@H](O)C[C@@]21C
- T/C [1]: 109 % of control
- T/C (dose: 100.0 mg/kg/injection, schedule: Q01DX009 (ip), vehicle: saline with Tween-80): 100 % of control
- T/C [17]: 118 % of control
- T/C (dose: 200.0 mg/kg/injection, schedule: Q01DX009 (ip), vehicle: saline with Tween-80): 90 % of control
- T/C [18]: 118 % of control

Structure (SMILES): CC(=O)OC(C[N+](=O)[O-])C(Cl)(Cl)Cl (configuration not stated)
- T/C [2]: 104 % of control
- T/C [3]: 109 % of control
- T/C (dose: 25.0 mg/kg/injection, schedule: Q01DX009 (ip), vehicle: saline with Tween-80): 100 % of control

Structure (SMILES): CC(C)C1=CC(=O)C(C)(C2C(O)CC3(C)C4CC=C5C(CCC(O)C5(C)C)C4(C)C(=O)CC23C)O1 (configuration not stated)
- T/C (dose: 10.13 mg/kg/injection, schedule: Q01DX005 (ip), vehicle: saline + alcohol): 97 % of control
- T/C (dose: 20.25 mg/kg/injection, schedule: Q01DX005 (ip), vehicle: saline + alcohol): 98 % of control
- T/C (dose: 40.05 mg/kg/injection, schedule: Q01DX005 (ip), vehicle: saline + alcohol): 101 % of control
- T/C (dose: 81.0 mg/kg/injection, schedule: Q01DX005 (ip), vehicle: saline + alcohol): 97 % of control

Structure (SMILES): COc1ccc(CC2C(=O)NC(C)C(=O)N(C)C3C(=O)N(C)C(Cc4ccc(O)c(c4)Oc4ccc(cc4)C3O)C(=O)NC(C)C(=O)NC(C)C(=O)N2C)cc1 (configuration not stated) (tested in a mixture with another compound)
- T/C (dose: 1.0 mg/kg/injection, schedule: Q01DX009 (ip), vehicle: Klucel (hydroxypropylcellulose) (HPC)): 158 % of control
- T/C (dose: 2.0 mg/kg/injection, schedule: Q01DX009 (ip), vehicle: Klucel (hydroxypropylcellulose) (HPC)): 158 % of control
- T/C (dose: 4.0 mg/kg/injection, schedule: Q01DX009 (ip), vehicle: Klucel (hydroxypropylcellulose) (HPC)): 155 % of control
- T/C (dose: 250.0 micrograms/kg/injection, schedule: Q01DX009 (ip), vehicle: saline): 156 % of control
- T/C (dose: 500.0 micrograms/kg/injection, schedule: Q01DX009 (ip), vehicle: saline): 152 % of control
- T/C (dose: 1000.0 micrograms/kg/injection, schedule: Q01DX009 (ip), vehicle: saline): 158 % of control

Structure (SMILES): CSC(SC)=C1C(=O)NC(Cc2ccccc2)C1=O (configuration not stated)
- T/C (dose: 6.25 mg/kg/injection, schedule: Q01DX005 (ip), vehicle: saline with Tween-80): 104 % of control
- T/C [15]: 112 % of control
- T/C [16]: 119 % of control
